# Reference: patent US10544149B2, “Bicyclic alkyne derivatives and uses thereof” (Agency for Science, Technology and Research, priority 2013, dated 2020)
# Legend:
# [1] = test system: eIF4e phosphorylation in Hela cell line; assay: eIF4e phosphorylation inhibition in Hela cell line; assay type: cell-based; conditions: Homo sapiens, cellular
# MNK2 = MNK2 (Homo sapiens, UniProt Q9HBH9); assay: MNK2 enzymatic assay; assay type: biochemical
# MNK1 = MNK1 (Homo sapiens, UniProt Q9BUB5); assay: MNK1 enzymatic assay; assay type: biochemical
# Sequence of MNK1 (Q9BUB5 whole entry): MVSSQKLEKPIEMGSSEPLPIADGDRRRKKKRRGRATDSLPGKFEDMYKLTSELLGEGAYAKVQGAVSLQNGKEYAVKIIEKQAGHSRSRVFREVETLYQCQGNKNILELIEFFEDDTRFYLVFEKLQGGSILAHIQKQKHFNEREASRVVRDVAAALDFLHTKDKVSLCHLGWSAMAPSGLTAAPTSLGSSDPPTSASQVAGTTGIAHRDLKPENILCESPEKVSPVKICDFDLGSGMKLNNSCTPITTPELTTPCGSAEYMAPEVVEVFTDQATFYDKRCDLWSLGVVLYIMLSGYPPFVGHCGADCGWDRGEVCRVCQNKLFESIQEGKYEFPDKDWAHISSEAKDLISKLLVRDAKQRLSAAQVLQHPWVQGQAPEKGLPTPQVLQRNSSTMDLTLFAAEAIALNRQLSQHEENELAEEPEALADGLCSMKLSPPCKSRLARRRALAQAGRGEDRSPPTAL
# Sequence of MNK2 (Q9HBH9 whole entry): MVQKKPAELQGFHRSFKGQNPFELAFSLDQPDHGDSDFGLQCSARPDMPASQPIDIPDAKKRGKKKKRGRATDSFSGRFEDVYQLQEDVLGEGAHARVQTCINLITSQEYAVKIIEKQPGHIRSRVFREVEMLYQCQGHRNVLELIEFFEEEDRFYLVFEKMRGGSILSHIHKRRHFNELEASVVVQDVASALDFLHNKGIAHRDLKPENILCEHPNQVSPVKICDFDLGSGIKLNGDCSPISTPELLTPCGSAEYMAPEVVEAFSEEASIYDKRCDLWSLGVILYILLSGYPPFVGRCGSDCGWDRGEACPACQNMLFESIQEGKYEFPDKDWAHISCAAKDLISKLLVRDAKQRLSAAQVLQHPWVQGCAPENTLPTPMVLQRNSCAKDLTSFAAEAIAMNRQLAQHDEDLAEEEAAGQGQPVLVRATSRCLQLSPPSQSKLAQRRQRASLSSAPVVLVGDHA
Structure (SMILES),IC50 [1] [µM],IC50 (MNK2) [µM],IC50 (MNK1) [µM]
"Cc1ccccc1C#Cc1cnc2ccc(-c3ccc(C(=O)N4CCN(C)CC4)cc3)nn12 [Example 001, (4-methylpiperazin-1-yl)(4-(3-(o-tolylethynyl)imidazo[1,2-b]pyridazin-6-yl)phenyl)methanone]",< 5,< 0.5,< 0.5
"CN1CCN(C(=O)c2ccc(-c3ccc4ncc(C#Cc5ccccc5)n4n3)cc2)CC1 [Example 002, (4-methylpiperazin-1-yl) (4-(3-(phenylethynyl)imidazo[1,2-b]pyridazin-6-yl)phenyl)methanone]",< 5,< 0.5,< 0.5
"CN1CCN(C(=O)c2ccc(-c3ccc4ncc(C#Cc5ccncc5)n4n3)cc2)CC1 [Example 005, (4-methylpiperazin-1-yl) (4-(3-(pyridin-4-ylethynyl)imidazo[1,2-b]pyridazin-6-yl)phenyl)methanone]",< 5,< 0.5,< 0.5
"CC(=O)Nc1cccc(C#Cc2cnc3ccc(-c4ccc(C(=O)N5CCN(C)CC5)cc4)nn23)c1 [Example 008, N-(3-((6-(4-(4-methylpiperazine-1-carbonyl)phenyl)imidazo[1,2-b]pyridazin-3-yl)ethynyl)phenyl)acetamide]",< 5,< 0.5,< 0.5
"O=C(c1ccc(-c2ccc3ncc(C#Cc4cccnc4)n3n2)cc1)N1CCOCC1 [Example 010, morpholino(4-(3-(pyridin-3-ylethynyl)imidazo[1,2-b]pyridazin-6-yl)phenyl)methanone]",< 5,< 0.5,< 0.5
"CS(=O)(=O)Nc1cccc(C#Cc2cnc3ccc(-c4ccc(C(=O)N5CCOCC5)cc4)nn23)c1 [Example 011, N-(3-((6-(4-(morpholine-4-carbonyl)phenyl)imidazo[1,2-b]pyridazin-3-yl)ethynyl)phenyl)methane sulfonamide]",< 5,< 0.5,< 0.5
"CC(=O)Nc1cccc(C#Cc2cnc3ccc(-c4ccc(C(=O)N5CCOCC5)cc4)nn23)c1 [Example 013, N-(3-((6-(4-(morpholine-4-carbonyl)phenyl)imidazo[1,2-b]pyridazin-3-yl)ethynyl)phenyl)acetamide]",< 5,< 0.5,< 0.5
"O=C(c1ccc(-c2ccc3ncc(C#Cc4ccnc5[nH]ncc45)n3n2)cc1)N1CCOCC1 [Example 016, (4-(3-((1H-pyrazolo[3,4-b]pyridin-4-yl)ethynyl)imidazo[1,2-b]pyridazin-6-yl)phenyl) (morpholino)methanone]",< 5,< 0.5,< 0.5
"Nc1cc(C#Cc2cnc3ccc(-c4ccc(C(=O)N5CCOCC5)cc4)nn23)c2cc[nH]c2n1 [Example 017, (4-(3-((6-amino-1H-pyrrolo[2,3-b]pyridin-4-yl)ethynyl)imidazo[1,2-b]pyridazin-6-yl)phenyl)(morpholino)methanone]",< 5,< 0.5,< 0.5
"COc1cc(C#Cc2cnc3ccc(-c4ccc(C(=O)N5CCOCC5)cc4)nn23)ccn1 [Example 019, (4-(3-((2-methoxypyridin-4-yl)ethynyl)imidazo[1,2-b]pyridazin-6-yl)phenyl) (morpholino)methanone]",< 5,< 0.5,< 0.5
"O=C(c1ccc(-c2ccc3ncc(C#Cc4cnc5cc[nH]c5c4)n3n2)cc1)N1CCOCC1 [Example 020, (4-(3-((1H-pyrrolo[3,2-b]pyridin-6-yl)ethynyl)imidazo[1,2-b]pyridazin-6-yl)phenyl) (morpholino)methanone]",< 5,< 0.5,< 0.5
Cc1ccncc1C#Cc1cnc2ccc(-c3ccc(C(=O)N4CCOCC4)cc3)nn12 [Example 022],< 5,< 0.5,< 0.5
"O=C(c1ccc(-c2ccc3ncc(C#Cc4cnc5[nH]ccc5c4)n3n2)cc1)N1CCOCC1 [Example 023, (4-(3-((1H-pyrrolo[2,3-b]pyridin-5-yl)ethynyl)imidazo[1,2-b]pyridazin-6-yl)phenyl) (morpholino)methanone]",< 5,< 0.5,< 0.5
"O=C(c1ccc(-c2ccc3ncc(C#Cc4c[nH]c5ncccc45)n3n2)cc1)N1CCOCC1 [Example 024, (4-(3-((1H-pyrrolo[2,3-b]pyridin-3-yl)ethynyl)imidazo[1,2-b]pyridazin-6-yl)phenyl) (morpholino)methanone]",< 5,< 0.5,< 0.5
"O=C(c1ccc(-c2ccc3ncc(C#Cc4ccc5[nH]cnc5c4)n3n2)cc1)N1CCOCC1 [Example 027, (4-(3-((1H-benzo[d]imidazol-5-yl)ethynyl)imidazo[1,2-b]pyridazin-6-yl)phenyl)(morpholino)methanone]",< 5,< 0.5,< 0.5
"O=C(c1ccc(-c2ccc3ncc(C#Cc4cn[nH]c4)n3n2)cc1)N1CCOCC1 [Example 028, (4-(3-((1H-pyrazol-4-yl)ethynyl)imidazo[1,2-b]pyridazin-6-yl)phenyl)(morpholino)methanone]",< 5,< 0.5,< 0.5

Structure (SMILES),IC50 [1] [µM],IC50 (MNK2) [µM],IC50 (MNK1) [µM]
"O=C(c1ccc(-c2ccc3ncc(C#Cc4c(C(F)(F)F)cnc5[nH]ccc45)n3n2)cc1)N1CCOCC1 [Example 031, morpholino(4-(3-((5-(trifluoromethyl)-1H-pyrrolo[2,3-b]pyridin-4-yl)ethynyl)imidazo[1,2-b]pyridazin-6-yl)phenyl)methanone]",< 5,< 0.5,< 0.5
O=C(c1ccc(-c2ccc3ncc(C#Cc4ccncc4)n3n2)cc1)N1CCOCC1 [Example 032],< 5,< 0.5,< 0.5
"O=C(c1ccc(-c2ccc3ncc(C#Cc4ccnc5[nH]ccc45)n3n2)cc1)N1CCOCC1 [Example 033, (4-(3-((1H-pyrrolo[2,3-b]pyridin-4-yl)ethynyl)imidazo[1,2-b]pyridazin-6-yl)phenyl) (morpholino)methanone]",< 5,< 0.5,< 0.5
"Nc1cc(C#Cc2cnc3ccc(-c4ccc(C(=O)N5CCOCC5)cc4)nn23)ccn1 [Example 034, (4-(3-((2-aminopyridin-4-yl)ethynyl)imidazo[1,2-b]pyridazin-6-yl)phenyl) (morpholino)methanone]",< 5,< 0.5,< 0.5
"Cn1ccc2c(C#Cc3cnc4ccc(-c5ccc(C(=O)N6CCOCC6)cc5)nn34)ccnc21 [Example 035, (4-(3-((1-methyl-1H-pyrrolo[2,3-b]pyridin-4-yl)ethynyl)imidazo[1,2-b]pyridazin-6-yl)phenyl)(morpholino) methanone]",< 5,< 0.5,< 0.5
"CC(=O)Nc1cc(C#Cc2cnc3ccc(-c4ccc(C(=O)N5CCOCC5)cc4)nn23)ccn1 [Example 037, N-(4-((6-(4-(morpholine-4-carbonyl)phenyl)imidazo[1,2-b]pyridazin-3-yl)ethynyl)pyridin-2-yl)acetamide]",< 5,< 0.5,< 0.5
"O=C(c1ccc(-c2ccc3ncc(C#Cc4ccc(O)nc4)n3n2)cc1)N1CCOCC1 [Example 040, (4-(3-((6-hydroxypyridin-3-yl)ethynyl)imidazo[1,2-b]pyridazin-6-yl)phenyl) (morpholino)methanone]",< 5,< 0.5,< 0.5
O=C(CCl)Nc1cc(C#Cc2cnc3ccc(-c4ccc(C(=O)N5CCOCC5)cc4)nn23)ccn1 [Example 043],< 5,< 0.5,< 0.5
"CNCC(=O)Nc1cc(C#Cc2cnc3ccc(-c4ccc(C(=O)N5CCOCC5)cc4)nn23)ccn1 [Example 044, 2-(methylamino)-N-(4-((6-(4-(morpholine-4-carbonyl)phenyl)imidazo[1,2-b]pyridazin-3-yl)ethynyl)pyridin-2-yl)acetamide]",< 5,< 0.5,< 0.5
"O=C(c1ccc(-c2ccc3ncc(C#Cc4ccnc5[nH]ccc45)n3n2)cc1)N1CCNCC1 [Example 045, (4-(3-((1H-pyrrolo[2,3-b]pyridin-4-yl)ethynyl)imidazo[1,2-b]pyridazin-6-yl)phenyl)(piperazin-1-yl) methanone]",< 5,< 0.5,< 0.5
"Nc1cc(C#Cc2cnc3ccc(-c4ccc(C(=O)N5CCNCC5)cc4)nn23)ccn1 [Example 046, (4-(3-((2-aminopyridin-4-yl)ethynyl)imidazo[1,2-b]pyridazin-6-yl)phenyl)(piperazin-1-yl)methanone]",< 5,< 0.5,< 0.5
"Cc1ncccc1Nc1cc(C#Cc2cnc3ccc(-c4ccc(C(=O)N5CCOCC5)cc4)nn23)ccn1 [Example 047, (4-(3-((2-((2-methylpyridin-3-yl)amino)pyridin-4-yl)ethynyl)imidazo[1,2-b]pyridazin-6-yl)phenyl) (morpholino)methanone]",< 5,< 0.5,< 0.5
"O=C(c1ccc(-c2ccc3ncc(C#Cc4ccnc(Nc5ccccn5)c4)n3n2)cc1)N1CCOCC1 [Example 048, morpholino(4-(3-((2-(pyridin-2-ylamino)pyridin-4-yl)ethynyl)imidazo[1,2-b]pyridazin-6-yl)phenyl)methanone]",< 5,< 0.5,< 0.5
"O=C(c1ccc(-c2ccc3ncc(C#Cc4ccnc(Nc5cccnc5)c4)n3n2)cc1)N1CCOCC1 [Example 049, morpholino(4-(3-((2-(pyridin-3-ylamino)pyridin-4-yl)ethynyl)imidazo[1,2-b]pyridazin-6 yl)phenyl)methanone]",< 5,< 0.5,< 0.5
"O=C(c1ccc(-c2ccc3ncc(C#Cc4ccnc(Nc5ccccc5)c4)n3n2)cc1)N1CCOCC1 [Example 051, morpholino(4-(3-((2-(phenylamino)pyridin-4-yl)ethynyl)imidazo[1,2-b]pyridazin-6-yl)phenyl)methanone]",< 5,< 0.5,< 0.5
